Results on five molecules are retold here after patent publication US20110236405A1, “COAGULATION FACTOR MODULATION FOR CONTROLLING TRANSPLANT ORGAN SIZE” (Tel HaShomer Medical Research Infrastructure and Services …, priority 2008, published 2011).

Common to all, as to type: in vivo, mouse
Experiment [1] concerns E42 pig liver precursor tissue implanted in Rag-/- mice. In words: Embryonic pig liver implant growth in Rag-/- mice, pig albumin serum ELISA. As to the method:
In addition, immune deficient RAG^−/− mice or RAG^−/− FVIII KO mice were used as hosts for the transplantation studies. To obtain RAG^−/− hemophilic mice (designated RAG^−/− FVIII KO mice), FVIII mutation was introduced into RAG^−/− mice, as was previously described. All mice were kept in small cages (up to five animals per cage) and fed sterile food.
Pig embryos were obtained from the Lahav Institute of Animal Research (Kibbutz Lahav, Israel). […] Warm ischemia time was less than 10 minutes and the embryos were transferred to cold PBS. Spleen, pancreas and liver precursors for transplantation were extracted under a light microscope and were kept in sterile conditions at 4° C. in RPMI 1640 (Biological Industries, Beit HaEmek, Israel) prior to transplantation. Cold ischemia time until transplantation was less than 2 hours.
Transplantation of pig precursors was completed as previously described [Dekel, B. et al., Nat Med (2003) 9, 53-60]. Briefly, transplantation of the embryonic precursors was performed under general anesthesia (2.5% 2,2,2-Tribromoethanol, 97% in PBS, 10 ml/kg intraperitoneally). […]
Pig albumin in mouse serum was measured by a standard ELISA procedure using primary goat anti-pig albumin antibody (human, mouse, and bovine absorbed), affinity purified, and secondary pig specific horseradish-peroxidase conjugated antibody (Catalog Nos. A100-210A and A100-210P, Bethyl). […]
Background: An ELISA detects its analyte on a solid surface through an enzyme-linked reagent.

A further experiment concerns C57BL mice. In words: G-CSF induced splenomegaly in C57BL and C57BL hemophilic mice. The conditions noted are these: for effect on G-CSF induced splenomegaly: C57BL mice, daily treatment plus G-CSF, versus G-CSF alone; for average spleen weight: G-CSF treated. The procedure:
8 to 10 week old immune competent C57BL mice and C57BL hemophilic (C57BL Hem F8) mice were used for the G-CSF studies.
(§1) 8-10 weeks old NOD-SCID or Factor VIII KO SCID mice were treated by daily subcutaneous injections of recombinant human G-CSF (Neupogen, Amgen) at a dose of 250 μg per kg per day for 7 days. To determine the spleen weight, 7 days after the initiation of G-CSF treatment, mice were euthanized and spleens were harvested.
Enoxaparine (Clexane 20 mg/0.2 ml, Rhone-poulenc, France) was used at a dosage of 200 μg/mouse (dissolved in PBS) and 0.2 ml of the final solution was injected subcutaneously into each mouse once a day.
Dabigatran etexilate (Boehringer Ingelheim Pharma KG, Biberach, Germany) was administrated orally at dosage of 30 mg/kg. Final volume of 0.3 ml dissolved in DDW was administrated daily.
The palmitoylated peptides: pal-RCLSSSAVANRS (PAR1 antagonist, SEQ ID NO: 15) and pal-SGRRYGHALR (PAR4 antagonist, SEQ ID NO: 16) were prepared by solid-phase peptide synthesis using in situ neutralization/HBTU by Hadar Biotec, Israel.
The mice were treated by vehicle control, or with PAR1 antagonist or PAR4 antagonist at 0.5 mg/kg, intraperitonealy on daily basis.

For experiment [2], the system named is NOD-SCID or Factor VIII KO SCID mice. In words: G-CSF induced splenomegaly in NOD-SCID and Factor VIII KO SCID mice. The conditions noted are these: for average spleen weight: G-CSF 250 μg per kg per day s.c. for 7 days. As to the method:
8-10 week old immune deficient NOD-SCID or factor VIII KO-SCID mice (Weizmann Institute Animal Breeding Center, Rehovot, Israel) were used for G-CSF studies. To obtain immunodeficient hemophilic mice (designated factor VIII KO-SCID), FVIII-deficient mice were crossed with SCID mice, as was previously described [Aronovich, A. et al., Proc Natl Acad Sci USA (2006) 103: 19075-80].
as §1
Hu Factor VIII was infused into Factor VIII KO SCID mice by osmotic pumps (Azlet pump model 1003D, 1 μl/hr rate, 100 μl total capacity with a continuous delivery for 3 days). Thus, 60 IU Hu factor VIII was dissolved in 100 μl PBS and delivered by the 1003D pump for 3 days. The pump was administrated into the peritoneal cavity. After 3 days, a similar new pump was administrated. Initial concentration of the Hu Factor VIII was calibrated based on Hu Factor VIII half life and its clearance rate [Mordenti, J. et al., Toxicol Appl Pharmacol (1996) 136: 75-81].

Where “and” joins values, the source holds several entries; their conditions need not be identical. Equal entries are not always repeated. Where no end group is shown, it is not given here. The star is where a group is joined. Palmitoyl = CCCCCCCCCCCCCCCC(=O)*

`CCCCCCOC(=O)NC(=N)c1ccc(NCc2nc3cc(C(=O)N(CCC(=O)OCC)c4ccccn4)ccc3n2C)cc1` [Dabigatran, Dabigatran etexilate]: the “embryonic pig liver growth (pig albumin serum levels)” value in experiment [1] (Rag-/- mice, Dabigatran etexilate 30 mg/kg orally daily) is listed as “enhancement”. Further, in the experiment with C57BL mice, the “effect on G-CSF induced splenomegaly” value is on record as “marked enhancement”.

As to Enoxaparine [Clexane], the “pig albumin blood levels” value in experiment [1] (non-hemophilic recipients, days 7 and 21 post transplant, versus control recipients not receiving Clexane) is “marked enhancements”. In the experiment on C57BL mice, the “effect on G-CSF induced splenomegaly” value is “marked enhancement”. The “total average weight of the spleens” value with C57BL mice (C57BL/6 mice, following G-CSF induction, Clexane 200 μg/mouse s.c. once a day) worked out at 266 ± 91 mg.

With “pal-RCLSSSAVANRS (Palmitoyl-RCLSSSAVANRS) [PAR1 antagonist, palmitoylated peptide, PAR1 antagonist]”, in the experiment on C57BL mice, the “effect on G-CSF induced splenomegaly” value is reported as “significantly enhanced”.

Take “pal-SGRRYGHALR (Palmitoyl-SGRRYGHALR) [PAR4 antagonist, palmitoylated peptide, PAR4 antagonist]”: in the experiment with C57BL mice, the “effect on G-CSF induced splenomegaly” value is recorded as “significantly enhanced”.

B1: G-CSF: recombinant human G-CSF (Neupogen, Amgen) (protein, chains of the INN, looked up)
chain: MTPLGPASSLPQSFLLKCLEQVRKIQGDGAALQEKLCATYKLCHPEELVLLGHSLGIPWAPLSSCPSQALQLAGCLSQLHSGLFLYQGLLQALEGISPELGPTLDTLQLDVADFATTIWQQMEELGMAPALQPTQGAMPAFASAFQRRAGGVLVASHLQSFLEVSYRVLRHLAQP
Consider B1, for which the average spleen weight is 314.89 ± 121.51 mg in experiment [2] (Factor VIII KO SCID mice); 118.5 ± 25.56 mg in experiment [2] (non-hemophilic NOD-SCID mice); 256.03 ± 149.86 mg and 261 ± 154 mg in the experiment with C57BL mice (C57BL hemophilic (Hem F8, Factor VIII KO) mice); 181.22 ± 61.43 mg in the experiment on C57BL mice (non-hemophilic C57BL mice). Further, the “average spleen weight, Factor VIII KO SCID versus non-hemophilic mice” value in experiment [2] (G-CSF treated mice) came out at 2.6 fold.
